Measurements as given in ChEMBL document CHEMBL1201862, “PubChem BioAssay data set” (2004).
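Growth conditions: 96-well plates. Treatment: test compound, 48 hours, 5 concentrations. Analysis: linear interpolation between bracketing concentrations; unreached endpoints set to highest concentration. GI50 = concentration required for 50% inhibition of growth.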 Activity calls are given as the source filed them. Rule as the data show it: active = GI50 up to about 1.1 µM and inactive = higher.

Tests used:
Test in all cases: NCI anticancer screen, dose series, 48 h
HCC 2998 = tested on: HCC 2998
U-251 = tested on: U-251
TK-10 = tested on: TK-10
A498 = tested on: A498
Hs-578T = tested on: Hs-578T
DU-145 = tested on: DU-145
SNB-75 = tested on: SNB-75
OVCAR-5 = tested on: OVCAR-5
NCI/ADR-RES = tested on: NCI/ADR-RES
HT-29 = tested on: HT-29
HOP-92 = tested on: HOP-92
OVCAR-8 = tested on: OVCAR-8
CAKI-1 = tested on: CAKI-1
SK-MEL-5 = tested on: SK-MEL-5
NCI-H460 = tested on: NCI-H460
Malme-3M = tested on: Malme-3M
NCI-H23 = tested on: NCI-H23
CCRF-CEM = tested on: CCRF-CEM
LOX IMVI = tested on: LOX IMVI
MDA-N = tested on: MDA-N
HOP-62 = tested on: HOP-62
HL-60 = tested on: HL-60
RXF 393 = tested on: RXF 393
HCT-15 = tested on: HCT-15
A549 = tested on: A549
NCI-H226 = tested on: NCI-H226
PC-3 = tested on: PC-3
SF-268 = tested on: SF-268
RPMI-8226 = tested on: RPMI-8226
EKVX = tested on: EKVX
KM12 = tested on: KM12
SR = tested on: SR
ACHN = tested on: ACHN
SNB-19 = tested on: SNB-19
SF-295 = tested on: SF-295
COLO 205 = tested on: COLO 205
SK-OV-3 = tested on: SK-OV-3
M14 = tested on: M14
T47D = tested on: T47D
NCI-H522 = tested on: NCI-H522
MOLT-4 = tested on: MOLT-4
SK-MEL-28 = tested on: SK-MEL-28
OVCAR-4 = tested on: OVCAR-4
UACC-257 = tested on: UACC-257
K562 = tested on: K562
OVCAR-3 = tested on: OVCAR-3
MDA-MB-231 = tested on: MDA-MB-231
MDA-MB-435 = tested on: MDA-MB-435
MCF7 = tested on: MCF7
UO-31 = tested on: UO-31
SW-620 = tested on: SW-620
UACC-62 = tested on: UACC-62
IGROV-1 = tested on: IGROV-1
SK-MEL-2 = tested on: SK-MEL-2
SF-539 = tested on: SF-539
SN12C = tested on: SN12C
786-0 = tested on: 786-0
HCT-116 = tested on: HCT-116

## CC(C(=O)NCCNC(=O)CCC(=O)N(C)O)C(=O)NCCNC(=O)CCC(=O)N(C)O
HCC 2998
  GI50: > 100 µM (inactive)
U-251
  GI50: > 100 µM (inactive)
TK-10
  GI50: > 100 µM (inactive)
A498
  GI50: > 100 µM (inactive)
Hs-578T
  GI50: > 100 µM (inactive)
DU-145
  GI50: > 100 µM (inactive)
SNB-75
  GI50: > 100 µM (inactive)
OVCAR-5
  GI50: > 100 µM (inactive)
NCI/ADR-RES
  GI50: > 100 µM (inactive)
HT-29
  GI50: > 100 µM (inactive)
HOP-92
  GI50: > 100 µM (inactive)
OVCAR-8
  GI50: > 100 µM (inactive)
CAKI-1
  GI50: > 100 µM (inactive)
SK-MEL-5
  GI50: 97.9 µM (inactive)
NCI-H460
  GI50: > 100 µM (inactive)
Malme-3M
  GI50: > 100 µM (inactive)
NCI-H23
  GI50: > 100 µM (inactive)
CCRF-CEM
  GI50: > 100 µM (inactive)
LOX IMVI
  GI50: > 100 µM (inactive)
MDA-N
  GI50: > 100 µM (inactive)
HOP-62
  GI50: > 100 µM (inactive)
HL-60
  GI50: > 100 µM (inactive)
RXF 393
  GI50: > 100 µM (inactive)
HCT-15
  GI50: > 100 µM
A549
  GI50: > 100 µM (inactive)
NCI-H226
  GI50: > 100 µM (inactive)
PC-3
  GI50: > 100 µM (inactive)
SF-268
  GI50: > 100 µM (inactive)
RPMI-8226
  GI50: > 100 µM (inactive)
EKVX
  GI50: > 100 µM (inactive)
KM12
  GI50: > 100 µM (inactive)
SR
  GI50: > 100 µM (inactive)
ACHN
  GI50: > 100 µM (inactive)
SNB-19
  GI50: > 100 µM (inactive)
SF-295
  GI50: > 100 µM (inactive)
COLO 205
  GI50: > 100 µM (inactive)
SK-OV-3
  GI50: > 100 µM (inactive)
M14
  GI50: > 100 µM (inactive)
T47D
  GI50: > 100 µM (inactive)
NCI-H522
  GI50: > 100 µM (inactive)
MOLT-4
  GI50: > 100 µM (inactive)
SK-MEL-28
  GI50: 5.71 µM (inactive)
OVCAR-4
  GI50: > 100 µM (inactive)
UACC-257
  GI50: > 100 µM (inactive)
K562
  GI50: > 100 µM (inactive)
OVCAR-3
  GI50: > 100 µM (inactive)
MDA-MB-231
  GI50: > 100 µM (inactive)
MDA-MB-435
  GI50: > 100 µM (inactive)
MCF7
  GI50: > 100 µM (inactive)
UO-31
  GI50: > 100 µM (inactive)
SW-620
  GI50: > 100 µM (inactive)
UACC-62
  GI50: > 100 µM (inactive)
IGROV-1
  GI50: > 100 µM (inactive)
SK-MEL-2
  GI50: > 100 µM (inactive)

## O=C1/C(=C/c2ccc(Oc3ccccc3)cc2)N=C(c2ccccc2)N1c1ccc(S(=O)(=O)Nc2nccs2)cc1
HCC 2998
  GI50: 1.56 µM (inactive)
U-251
  GI50: 17.1 µM (inactive)
TK-10
  GI50: 26.8 µM (inactive)
SF-539
  GI50: 31.5 µM (inactive)
A498
  GI50: 18.1 µM (inactive)
Hs-578T
  GI50: 39.4 µM (inactive)
DU-145
  GI50: 47 µM (inactive)
SNB-75
  GI50: 7.53 µM (inactive)
OVCAR-5
  GI50: 40.4 µM (inactive)
NCI/ADR-RES
  GI50: 13.1 µM (inactive)
HT-29
  GI50: 9.68 µM (inactive)
HOP-92
  GI50: 6.78 µM (inactive)
CAKI-1
  GI50: 21.7 µM (inactive)
SK-MEL-5
  GI50: 17.5 µM (inactive)
NCI-H460
  GI50: 25.5 µM (inactive)
Malme-3M
  GI50: 19.1 µM (inactive)
NCI-H23
  GI50: 32.7 µM (inactive)
CCRF-CEM
  GI50: 26.2 µM (inactive)
LOX IMVI
  GI50: 21.5 µM (inactive)
MDA-N
  GI50: 3.22 µM (inactive)
HOP-62
  GI50: 14.9 µM (inactive)
HL-60
  GI50: 6.73 µM (inactive)
RXF 393
  GI50: 17 µM (inactive)
HCT-15
  GI50: 8.07 µM
A549
  GI50: 25.8 µM (inactive)
NCI-H226
  GI50: 33.4 µM (inactive)
PC-3
  GI50: 25.4 µM (inactive)
SF-268
  GI50: 36.8 µM (inactive)
RPMI-8226
  GI50: 6.34 µM (inactive)
EKVX
  GI50: 23.2 µM (inactive)
KM12
  GI50: 5.15 µM (inactive)
SR
  GI50: 2.65 µM (inactive)
ACHN
  GI50: 37.2 µM (inactive)
SNB-19
  GI50: 35.3 µM (inactive)
SF-295
  GI50: 22.8 µM (inactive)
COLO 205
  GI50: 8.3 µM (inactive)
SK-OV-3
  GI50: 27.8 µM (inactive)
M14
  GI50: 15.3 µM (inactive)
T47D
  GI50: 12.8 µM (inactive)
MOLT-4
  GI50: 12.6 µM (inactive)
SK-MEL-28
  GI50: 22.8 µM (inactive)
OVCAR-4
  GI50: 38.6 µM (inactive)
UACC-257
  GI50: 21.3 µM (inactive)
K562
  GI50: 7.48 µM (inactive)
SN12C
  GI50: 39.8 µM (inactive)
786-0
  GI50: 31.4 µM (inactive)
OVCAR-3
  GI50: 17.3 µM (inactive)
MDA-MB-231
  GI50: 28.2 µM (inactive)
MDA-MB-435
  GI50: 2.62 µM (inactive)
MCF7
  GI50: 14.3 µM (inactive)
UO-31
  GI50: 21.8 µM (inactive)
SW-620
  GI50: 13.9 µM (inactive)
UACC-62
  GI50: 19.5 µM (inactive)
HCT-116
  GI50: 10.7 µM (inactive)
SK-MEL-2
  GI50: 2.63 µM (inactive)
